Key:
[1] = compound: CN1CC[C@H](c2c(O)cc(O)c3c(=O)cc(-c4ccccc4Cl)oc23)[C@H](O)C1 [Flavopiridol]; assay: GR value, 72 h; higher = faster growth (1 = untreated, <0 = killing);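 note: breast cancer and non-malignant breast epithelial lines, nine half-log doses, viable cells counted by Hoechst and LIVE/DEAD dye imaging versus time-zero plates and DMSO controls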
[2] = compound: C=CC(=O)Nc1ccc(C(=O)Nc2[nH]nc3c2CN(C(=O)N[C@H](CN(C)C)c2ccccc2)C3(C)C)cc1 [YKL-5-124]; assay: as above
[3] = compound: CCc1cnn2c(NCc3ccc[n+]([O-])c3)cc(N3CCCC[C@H]3CCO)nc12; assay: as above
[4] = compound: CC(=O)c1c(C)c2cnc(Nc3ccc(N4CCNCC4)cn3)nc2n(C2CCCC2)c1=O; assay: as above
[5] = compound: CN(C)C/C=C/C(=O)Nc1ccc(C(=O)N2CCC[C@@H](Nc3ncc(Cl)c(-c4c[nH]c5ccccc45)n3)C2)cc1 [THZ531]; assay: as above
[6] = compound: CN(C)C/C=C/C(=O)Nc1ccc(C(=O)Nc2cccc(Nc3ncc(Cl)c(-c4c[nH]c5ccccc45)n3)c2)cc1 [THZ1]; assay: as above
[7] = compound: CN(C)C(=O)c1cc2cnc(Nc3ccc(N4CCNCC4)cn3)nc2n1C1CCCC1 [LEE011/Ribociclib]; assay: as above
[8] = compound: CCN1CCN(Cc2ccc(Nc3ncc(F)c(-c4cc(F)c5nc(C)n(C(C)C)c5c4)n3)nc2)CC1; assay: as above
[9] = compound: CC(=O)O[C@H]1C(=O)[C@@]2(C)[C@H]([C@H](OC(=O)c3ccccc3)[C@]3(O)C[C@H](OC(=O)[C@H](O)[C@@H](NC(=O)c4ccccc4)c4ccccc4)C(C)=C1C3(C)C)[C@]1(OC(C)=O)CO[C@@H]1C[C@@H]2O [Paclitaxel]
[10] = compound: O=C(CCCCCCC(=O)Nc1ccccc1)NO [Vorinostat]
[11] = compound: NC1(C(=O)N[C@@H](CCO)c2ccc(Cl)cc2)CCN(c2nc[nH]c3nccc2-3)CC1 [AZD5363]
[12] = compound: CC(=O)c1c(C)c2cnc(Nc3ccc(N4CCN(CCOCCOCCOCCNC(=O)COc5cccc6c5C(=O)N(C5CCC(=O)NC5=O)C6=O)CC4)cn3)nc2n(C2CCCC2)c1=O [BSJ-03-123]
[13] = compound: CCc1cnn2c(NCc3ccc[n+]([O-])c3)cc(N3CCCC[C@H]3CCO)nc12
[14] = compound: Nc1cc(C(F)(F)F)c(-c2cc(N3CCOCC3)nc(N3CCOCC3)n2)cn1 [Buparlisib/NVP-BKM120]
[15] = compound: CC1(CCN(CC1)C2=CN=C(C(=N2)N)C3=C(C(=CC=C3)Cl)Cl)N [SHP099]
[16] = compound: COc1cc2nccc(Oc3ccc(NC(=O)C4(C(=O)Nc5ccc(F)cc5)CC4)cc3)c2cc1OC [Cabozantinib]
[17] = compound: CCN1CCN(Cc2ccc(Nc3ncc(F)c(-c4cc(F)c5nc(C)n(C(C)C)c5c4)n3)nc2)CC1
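Throughout, for GR50, 72 h: breast cancer and non-malignant breast epithelial cell lines, Deep Dye Drop or Dye Drop imaging, nine half-log doses, GR normalized to time-zero plates and DMSO-only controls.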

CAMA1
GR value ([1]; 0.0001 µM): 1.25 GR | GR value ([1]; 0.0003162 µM): 1.12 GR | GR value ([1]; 0.001 µM): 0.73 GR | GR value ([1]; 0.003162 µM): 1.05 GR | GR value ([1]; 0.01 µM): 0.907 GR | GR value ([1]; 0.03162 µM): 0.862 GR | GR value ([1]; 0.1 µM): 0.807 GR | GR value ([1]; 0.3162 µM): 0.194 GR | GR value ([1]; 1 µM): -0.111 GR | GR value ([2]; 0.001 µM): 0.224 GR | GR value ([2]; 0.003162 µM): 0.229 GR | GR value ([2]; 0.01 µM): 0.0682 GR | GR value ([2]; 0.03162 µM): 0.0899 GR | GR value ([2]; 0.1 µM): 0.0659 GR | GR value ([2]; 0.3162 µM): -0.0547 GR | GR value ([2]; 1 µM): 0.0323 GR | GR value ([2]; 3.162 µM): 0.0041 GR | GR value ([2]; 10 µM): -0.591 GR | GR value ([3]; 0.0001 µM): 0.942 GR | GR value ([3]; 0.0003162 µM): 1.05 GR | GR value ([3]; 0.001 µM): 1.01 GR | GR value ([3]; 0.003162 µM): 1 GR | GR value ([3]; 0.01 µM): 0.725 GR | GR value ([3]; 0.03162 µM): -0.0614 GR | GR value ([3]; 0.1 µM): -0.386 GR | GR value ([3]; 0.3162 µM): -0.417 GR | GR value ([3]; 1 µM): -0.494 GR | GR value ([4]; 0.0003162 µM): 0.969 GR | GR value ([4]; 0.001 µM): 0.973 GR | GR value ([4]; 0.003162 µM): 0.94 GR | GR value ([4]; 0.01 µM): 0.887 GR | GR value ([4]; 0.03162 µM): 0.678 GR | GR value ([4]; 0.1 µM): 0.442 GR | GR value ([4]; 0.3162 µM): 0.303 GR | GR value ([4]; 1 µM): 0.3 GR | GR value ([4]; 3.162 µM): 0.288 GR | GR value ([5]; 0.0001 µM): 1.2 GR | GR value ([5]; 0.0003162 µM): 0.94 GR | GR value ([5]; 0.001 µM): 0.893 GR | GR value ([5]; 0.003162 µM): 1.16 GR | GR value ([5]; 0.01 µM): 1.26 GR | GR value ([5]; 0.03162 µM): 0.867 GR | GR value ([5]; 0.1 µM): 0.777 GR | GR value ([5]; 0.3162 µM): -0.0843 GR | GR value ([5]; 1 µM): -0.403 GR | GR value ([6]; 0.0001 µM): 0.892 GR | GR value ([6]; 0.0003162 µM): 0.979 GR | GR value ([6]; 0.001 µM): 0.758 GR | GR value ([6]; 0.003162 µM): 0.755 GR | GR value ([6]; 0.01 µM): 0.615 GR | GR value ([6]; 0.03162 µM): 0.549 GR | GR value ([6]; 0.1 µM): 0.208 GR | GR value ([6]; 0.3162 µM): -0.0416 GR | GR value ([6]; 1 µM): -0.467 GR | GR value ([7]; 0.001 µM): 0.721 GR | GR value ([7]; 0.003162 µM): 0.549 GR | GR value ([7]; 0.01 µM): 0.365 GR | GR value ([7]; 0.03162 µM): 0.492 GR | GR value ([7]; 0.1 µM): 0.285 GR | GR value ([7]; 0.3162 µM): 0.207 GR | GR value ([7]; 1 µM): 0.21 GR | GR value ([7]; 3.162 µM): 0.141 GR | GR value ([7]; 10 µM): 0.159 GR | GR value ([8]; 0.001 µM): 0.866 GR | GR value ([8]; 0.003162 µM): 0.777 GR | GR value ([8]; 0.01 µM): 0.44 GR | GR value ([8]; 0.03162 µM): 0.272 GR | GR value ([8]; 0.1 µM): 0.257 GR | GR value ([8]; 0.3162 µM): 0.278 GR | GR value ([8]; 1 µM): 0.285 GR | GR value ([8]; 3.162 µM): 0.286 GR | GR value ([8]; 10 µM): 0.223 GR | GR50, 72 h [9]: 0.00227 µM | GR50, 72 h [10]: 0.884 µM | GR50, 72 h [11]: 0.0498 µM | GR50, 72 h [12]: 0.00879 µM | GR50, 72 h [13]: 0.0146 µM | GR50, 72 h [14]: 1.01 µM | GR50, 72 h [15]: > 10 µM | GR50, 72 h [16]: 8.39 µM | GR50, 72 h [17]: 0.00786 µM

EFM19
GR value ([1]; 0.0001 µM): 1.03 GR | GR value ([1]; 0.0003162 µM): 0.976 GR | GR value ([1]; 0.001 µM): 0.978 GR | GR value ([1]; 0.003162 µM): 0.991 GR | GR value ([1]; 0.01 µM): 0.877 GR | GR value ([1]; 0.03162 µM): 0.976 GR | GR value ([1]; 0.1 µM): 0.809 GR | GR value ([1]; 0.3162 µM): 0.466 GR | GR value ([1]; 1 µM): -0.199 GR | GR value ([2]; 0.001 µM): 0.518 GR | GR value ([2]; 0.003162 µM): 0.329 GR | GR value ([2]; 0.01 µM): 0.259 GR | GR value ([2]; 0.03162 µM): 0.219 GR | GR value ([2]; 0.1 µM): 0.134 GR | GR value ([2]; 0.3162 µM): 0.178 GR | GR value ([2]; 1 µM): 0.106 GR | GR value ([2]; 3.162 µM): 0.149 GR | GR value ([2]; 10 µM): 0.0614 GR | GR value ([3]; 0.0001 µM): 1.1 GR | GR value ([3]; 0.0003162 µM): 1.09 GR | GR value ([3]; 0.001 µM): 1.15 GR | GR value ([3]; 0.003162 µM): 1.15 GR | GR value ([3]; 0.01 µM): 1.05 GR | GR value ([3]; 0.03162 µM): 0.509 GR | GR value ([3]; 0.1 µM): -0.295 GR | GR value ([3]; 0.3162 µM): -0.448 GR | GR value ([3]; 1 µM): -0.534 GR | GR value ([4]; 0.0003162 µM): 1.05 GR | GR value ([4]; 0.001 µM): 1.03 GR | GR value ([4]; 0.003162 µM): 1.03 GR | GR value ([4]; 0.01 µM): 1.02 GR | GR value ([4]; 0.03162 µM): 0.941 GR | GR value ([4]; 0.1 µM): 0.843 GR | GR value ([4]; 0.3162 µM): 0.626 GR | GR value ([4]; 1 µM): 0.401 GR | GR value ([4]; 3.162 µM): 0.284 GR | GR value ([5]; 0.0001 µM): 0.996 GR | GR value ([5]; 0.0003162 µM): 0.978 GR | GR value ([5]; 0.001 µM): 0.907 GR | GR value ([5]; 0.003162 µM): 0.911 GR | GR value ([5]; 0.01 µM): 1.07 GR | GR value ([5]; 0.03162 µM): 0.896 GR | GR value ([5]; 0.1 µM): 1 GR | GR value ([5]; 0.3162 µM): 0.801 GR | GR value ([5]; 1 µM): -0.59 GR | GR value ([6]; 0.0001 µM): 0.946 GR | GR value ([6]; 0.0003162 µM): 1.1 GR | GR value ([6]; 0.001 µM): 1.04 GR | GR value ([6]; 0.003162 µM): 0.932 GR | GR value ([6]; 0.01 µM): 1.01 GR | GR value ([6]; 0.03162 µM): 0.922 GR | GR value ([6]; 0.1 µM): 0.86 GR | GR value ([6]; 0.3162 µM): 0.69 GR | GR value ([6]; 1 µM): -0.299 GR | GR value ([7]; 0.001 µM): 0.892 GR | GR value ([7]; 0.003162 µM): 0.802 GR | GR value ([7]; 0.01 µM): 0.825 GR | GR value ([7]; 0.03162 µM): 0.914 GR | GR value ([7]; 0.1 µM): 0.688 GR | GR value ([7]; 0.3162 µM): 0.61 GR | GR value ([7]; 1 µM): 0.6 GR | GR value ([7]; 3.162 µM): 0.415 GR | GR value ([7]; 10 µM): 0.355 GR | GR value ([8]; 0.001 µM): 0.984 GR | GR value ([8]; 0.003162 µM): 0.967 GR | GR value ([8]; 0.01 µM): 0.802 GR | GR value ([8]; 0.03162 µM): 0.442 GR | GR value ([8]; 0.1 µM): 0.359 GR | GR value ([8]; 0.3162 µM): 0.337 GR | GR value ([8]; 1 µM): 0.327 GR | GR value ([8]; 3.162 µM): 0.359 GR | GR value ([8]; 10 µM): 0.269 GR | GR50, 72 h [9]: 0.00438 µM | GR50, 72 h [10]: 2.66 µM | GR50, 72 h [11]: 1.63 µM | GR50, 72 h [12]: 1.23 µM | GR50, 72 h [13]: 0.0283 µM | GR50, 72 h [14]: 0.706 µM | GR50, 72 h [15]: > 10 µM | GR50, 72 h [16]: > 10 µM | GR50, 72 h [17]: 0.025 µM

From the supplement of paper PMC9663587
